Source: US6353009B1, “Method for the treatment and prevention of hyperuricemia” (Sankyo Company, Limited, priority 1997, dated 2002)
Values joined by “and” are separate entries in the source; they are usually repeats but may differ in a detail not shown here. Identical values can stand only once.

What was measured:
blood uric acid = assay: Improvement in hyperuricemia: blood uric acid level in patients given troglitazone; type: in vivo, human
Protocol: The level of uric acid in the blood of a patient may be measured in a conventional manner. Specifically, blood is collected before and after the administration, for a predetermined period, of a medicament to a patient suffering from hyperuricemia and then the blood uric acid level is measured, for example, by the uricase catalase method [Kageyama: Clin. Chim. Acta., 31, 421-426 (1971)]. A measuring kit employing the above method is commercially available (“Uricolor 400”, trade name; product of Ono Pharmaceutical Co., Ltd.)
4 adult human patients who had suffered from diabetes and hyperuricemia and whose blood uric acid level was not less than 7.0 mg/dl, were administered orally 200 mg of troglitazone twice a day (in the morning and in the evening). This administration was continued for 4 weeks. Both after and before administration, blood was collected and the blood uric acid level was measured.

uric acid = conditions: clinical examination values, Rinsho Iyaku 9, Suppl.3, 14 (1993), cited from earlier work
ddY mice (male) = type: in vivo; conditions: 300 mg/kg orally, three male ddY mice, observed for 5 days
Protocol: The acute toxicity of troglitazone was measured in a conventional manner. Specifically, 300 mg/kg of troglitazone was administered orally to three ddY mice (male), which were then observed for 5 days.

Question: With `Cc1c(C)c2c(c(C)c1O)CCC(C)(COc1ccc(CC3SC(=O)NC3=O)cc1)O2` (stereo not drawn) [troglitazone, 5-[4-(6-hydroxy-2,5,7,8-tetramethylchroman-2-ylmethoxy)benzyl]thiazolidine-2,4-dione] as the molecule, how does the “Blood uric acid level, Week 4” value (blood uric acid; adult human patients with diabetes and hyperuricemia, 200 mg orally twice a day for 4 weeks) read?
Answer: 5.2 mg/dL and 5.3 mg/dL and 5.6 mg/dL

Question: What about the “Blood uric acid level, Week 0” value (blood uric acid; adult human patients with diabetes and hyperuricemia, before administration (baseline)) of the same molecule?
Answer: 7.2 mg/dL and 7.6 mg/dL and 7.9 mg/dL

Question: And the “blood uric acid level after administration (summary of the Table)” value (blood uric acid; patients with blood uric acid 7.0 mg/dl or greater, 200 mg orally twice a day, 4 weeks, normal range)?
Answer: ≤ 6.0 mg/dL

Question: And the “uric acid level before administration” value (uric acid; baseline)?
Answer: 4.7±1.7

Question: And the “uric acid level after administration” value (uric acid)?
Answer: 4.4±1.4

Question: And the “survival (acute toxicity)” value (ddY mice (male))?
Answer: All of them survived
